Measured values from patent US5795907A, “Gastin and CCK receptor ligands” (James Black Foundation Limited, priority 1994, dated 1998).

Legend:
CCKB receptor = target: T1, CCKB receptor (Mus musculus, UniProt P56481); assay: CCKB receptor radioligand binding assay in mouse cortical membranes ([125I]-CCK8S); conditions: [125I]-CCK8S 200 pM, 150 min at 21±3°; for Ki: read-out: CCKB pKi (converted)
T1 construct: The cortex was dissected, weighed and homogenised in 40ml ice-cold buffer; tissue Charles River (supplier of the CD1 mice); host or cells: cerebral cortex membranes of male CD1 mice
T1 sequence (P56481 1-453): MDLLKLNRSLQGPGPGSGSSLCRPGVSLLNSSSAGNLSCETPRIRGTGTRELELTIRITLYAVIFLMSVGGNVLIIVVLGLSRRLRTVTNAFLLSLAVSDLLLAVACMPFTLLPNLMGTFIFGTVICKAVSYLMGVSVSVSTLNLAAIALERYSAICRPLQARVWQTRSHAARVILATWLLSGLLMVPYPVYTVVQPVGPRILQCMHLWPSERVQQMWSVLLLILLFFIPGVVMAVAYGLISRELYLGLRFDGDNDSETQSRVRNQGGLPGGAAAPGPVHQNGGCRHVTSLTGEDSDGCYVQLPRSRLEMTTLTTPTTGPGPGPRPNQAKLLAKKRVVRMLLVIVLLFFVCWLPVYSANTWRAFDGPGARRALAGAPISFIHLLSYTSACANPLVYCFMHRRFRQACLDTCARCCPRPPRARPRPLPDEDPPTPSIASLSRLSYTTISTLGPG
How it was run: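 This was competition binding with tracer [125I]-CCK8S (200 pM solution added), run for 150 min at 21±3° on male CD1 mouse cortex membranes in pH 7.2 HEPES buffer with bacitracin. Filtration then gamma counting gave bound radioactivity. L-365,260 set the non-specific level.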

gastrin = target: T2, gastrin (Rattus norvegicus, UniProt P30553); assay: gastrin antagonist activity in an immature rat stomach assay (pentagastrin-stimulated acid secretion); conditions: cumulative pentagastrin dose-response curves after 60 min with drug; for Kb: read-out: Gastrin pKB (converted)
T2 construct: The stomach was lowered into a jacketed organ bath containing 40 ml of buffered solution; from tissue; host or cells: isolated perfused whole stomach of immature rats (ca. 21 days old)
T2 sequence (P30553 1-452): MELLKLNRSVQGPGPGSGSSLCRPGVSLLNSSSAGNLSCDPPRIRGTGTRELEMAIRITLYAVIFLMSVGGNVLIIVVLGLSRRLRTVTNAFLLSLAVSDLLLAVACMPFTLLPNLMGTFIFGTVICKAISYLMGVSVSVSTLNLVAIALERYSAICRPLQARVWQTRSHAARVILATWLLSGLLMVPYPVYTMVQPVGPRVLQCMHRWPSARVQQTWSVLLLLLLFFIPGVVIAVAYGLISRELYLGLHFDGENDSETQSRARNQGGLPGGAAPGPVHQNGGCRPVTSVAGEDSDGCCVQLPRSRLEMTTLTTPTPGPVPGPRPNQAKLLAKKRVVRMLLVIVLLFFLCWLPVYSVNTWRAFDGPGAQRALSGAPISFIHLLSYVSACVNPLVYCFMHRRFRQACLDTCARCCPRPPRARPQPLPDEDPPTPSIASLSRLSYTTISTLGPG
How it was run: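 Isolated lumen-perfused immature rat stomach (33-50 g, ca. 21 days) in 37° organ bath with 3×10^-8 M 5-methylfurmethide; acid secretion read by pH electrode in perfusate. Compound added to serosal bath after 120 min stabilisation; cumulative pentagastrin dose-response curves begun 60 min later and analysed by the Black et al. method.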

CCKA = target: T3, CCKA (Cavia porcellus, UniProt Q63931); assay: CCKA radioligand binding assay in guinea-pig pancreas membranes ([125I]-CCK8(S)); conditions: PD134,308 present, 150 minutes at 21±3°; for Ki: read-out: CCKA pKi (converted)
T3 construct: The pancreatata were homogenised in 40 ml ice-cold HEPES buffer using a polytron; from tissue; host or cells: pancreas membranes of male Dunkin Hartley guinea-pigs
T3 sequence (Q63931 1-430): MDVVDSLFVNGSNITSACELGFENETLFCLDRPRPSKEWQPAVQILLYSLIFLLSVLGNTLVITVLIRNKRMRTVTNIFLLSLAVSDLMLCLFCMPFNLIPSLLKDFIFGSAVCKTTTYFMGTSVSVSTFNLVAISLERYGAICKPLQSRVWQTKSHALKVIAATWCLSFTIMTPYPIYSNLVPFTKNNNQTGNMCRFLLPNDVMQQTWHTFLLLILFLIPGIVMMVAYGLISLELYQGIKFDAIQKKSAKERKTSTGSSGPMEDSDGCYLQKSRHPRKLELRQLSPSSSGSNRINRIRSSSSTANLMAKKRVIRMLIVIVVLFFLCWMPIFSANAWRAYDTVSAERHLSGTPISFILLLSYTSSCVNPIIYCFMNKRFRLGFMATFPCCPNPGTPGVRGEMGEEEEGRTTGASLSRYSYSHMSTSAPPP
How it was run: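 Competition for [125I]-CCK8(S) (added as […] solution) ran for 150 min at 21±3° in HEPES pH 7.2. Membranes came from male guinea-pig pancreas at 1 mg/ml original wet weight, with 0.375 μM PD134,308 in the suspension. Filter-bound counts were gamma-counted; 100 nM L-364,718 (added solution) defined non-specific binding.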

Q: How did the Ki (CCKB receptor) turn out when `O=C(O)c1cc(NC(=O)[C@H](Cc2ccccc2F)NC(=O)c2cc3cc[nH]c3cc2C(=O)NCC23CC4CC(CC(C4)C2)C3)cc(C(=O)O)c1` [Example 87, 5-(1S-(3,5-dicarboxyphenylaminocarbonyl)-2-(2-fluorophenyl)ethylaminocarbonyl)-6-(1-adamantanemethylaminocarbonyl)-indole] was run?
A: 0.794 nM

Q: And the Kb (gastrin)?
A: 0.251 nM

Q: What about the Ki (CCKA) of the same compound?
A: 3160 nM

Q: For “5-(1R-(3,5-dicarboxyphenylaminocarbonyl)-ethylaminocarbonyl)-6-(cycloheptanemethylaminocarbonyl)-indole and regioisomer with substituents at positions 5 and 6 reversed [Example 59]”, which “CCKB pKi” value (CCKB receptor) is on record?
A: 6.9

Q: What about the “Gastrin pKB” value (gastrin) of the same compound?
A: 7.5

Q: What about the “CCKA pKi” value (CCKA) of the same compound?
A: 5.1

Q: How did the Ki (CCKB receptor) turn out when `O=C(O)c1ccc(Cl)c(NC(=O)[C@H](Cc2ccccc2)NC(=O)c2cc3[nH]cnc3cc2C(=O)NCC23CC4CC(CC(C4)C2)C3)c1` [Example 127, 5-(1S-(^2-chloro-5-carboxyphenylaminocarbonyl)-2-phenylethylaminocarbonyl)-6-(1-adamantanemethylaminocarbonyl)-benzimidazole] was run?
A: 25.1 nM

Q: What about the Kb (gastrin) of the same compound?
A: 31.6 nM

Q: And the Ki (CCKA)?
A: 1260 nM

Q: `CN(C(=O)c1cc2[nH]cnc2cc1C(=O)NCC12CC3CC(CC(C3)C1)C2)[C@@H](Cc1ccccc1)C(=O)Nc1cc(C(=O)O)cc(C(=O)O)c1` [Example 86, 5-(1S-(3,5-dicarboxyphenylaminocarbonyl)-2-30 phenylethyl-(N-methylamino)-carbonyl)-6-(1-adamantanemethylaminocarbonyl)-benzimidazole] was tested. Which Ki (CCKB receptor) did it give?
A: 31.6 nM

Q: What about the Kb (gastrin) of the same compound?
A: 20 nM

Q: And the “CCKA pKi” value (CCKA)?
A: 5.0
